Assay: recombinant UMI read abundance after kanamycin selection (control-corrected) (log10(CPM+1)); higher = more efficient recombination; extreme values may be limits of the assay; sequences stand for … in AGTGCAGAGAAAATCGGCCAGTTTTCTCTGCCTGCAGTCCGCATGCCGTGGGACCCCTTGGGTTCTAACCTGTTGCCTAGATTTATGCAGCGGACTGCCTTTCTCCCAAAGTGATAAACCGG…AGGTTGGTTTCACT; site = the 11-nt donor
Summary of the method: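 Counts of recombinant UMIs were reported as log10(CPM+1). Before that, they were converted to CPM, averaged over replicates and scaled using control-derived factors. They came from PCR across the donor–target junction after Escherichia coli carrying the pair library and target plasmid was plated on IPTG (0.07 mM) plus kanamycin, or unselected, in two replicates each.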
With “CAATTAACATGGACCGGTTTTCCCGGTAATCCGTATTTGCT (site CAATTAACTAG)” the “recombinant UMI read abundance (log10)” value was 0.982.
For “CAATTCACATGGACCGGTTTTCCCGGTAATCCGTATTTGGG (site CAAATCACTCC)”, the “recombinant UMI read abundance (log10)” value was 0.839.
In the case of “CAATTCACATGGACCGGTTTTCCCGGTAATCCGTATTTGGG (site CAACTCACTCC)”, the “recombinant UMI read abundance (log10)” value is reported as 0.251.
For “CAATTCACATGGACCGGTTTTCCCGGTAATCCGTATTTGGG (site CAAGTCACTCC)”, the “recombinant UMI read abundance (log10)” value was 0.0135.
For “CAATTCACATGGACCGGTTTTCCCGGTAATCCGTATTTGGG (site CAATTCACTCC)”, the “recombinant UMI read abundance (log10)” value was 0.0754.
For “CAATTCCCATGGACCGGTTTTCCCGGTAATCCGTATTTGCA (site CAATTCCCTAG)”, the “recombinant UMI read abundance (log10)” value was 0.
With “CAATTCCCATGGACCGGTTTTCCCGGTAATCCGTATTTGCA (site CAATTCCCTCG)” the “recombinant UMI read abundance (log10)” value was 0.00698.
With “CAATTCCCATGGACCGGTTTTCCCGGTAATCCGTATTTGCA (site CAATTCCCTGG)” the “recombinant UMI read abundance (log10)” value was 0.
In the case of “CAATTCCCATGGACCGGTTTTCCCGGTAATCCGTATTTGCA (site CAATTCCCTTG)”, the “recombinant UMI read abundance (log10)” value is reported as 1.27.
In the case of “CAATTCTCATGGACCGGTTTTCCCGGTAATCCGTATTTGCT (site CAATTCACTAG)”, the “recombinant UMI read abundance (log10)” value is reported as 0.75.
With “CAATTCTCATGGACCGGTTTTCCCGGTAATCCGTATTTGCT (site CAATTCCCTAG)” the “recombinant UMI read abundance (log10)” value was 0.421.
With “CAATTCTCATGGACCGGTTTTCCCGGTAATCCGTATTTGCT (site CAATTCGCTAG)” the “recombinant UMI read abundance (log10)” value was 0.
With “CAATTCTCATGGACCGGTTTTCCCGGTAATCCGTATTTGCT (site CAATTCTCTAG)” the “recombinant UMI read abundance (log10)” value was 2.19.
In the case of “CACAACACATGGACCGGTTTTCCCGGTAATCCGTATTTGAC (site CACAACACTGT)”, the “recombinant UMI read abundance (log10)” value is reported as 2.79.
For “CACATGGCATGGACCGGTTTTCCCGGTAATCCGTATTTGGA (site CACATGGCTTC)”, the “recombinant UMI read abundance (log10)” value was 0.785.
For “CACATGGCATGGACCGGTTTTCCCGGTAATCCGTATTTGGA (site CACCTGGCTTC)”, the “recombinant UMI read abundance (log10)” value was 0.346.
In the case of “CACATGGCATGGACCGGTTTTCCCGGTAATCCGTATTTGGA (site CACGTGGCTTC)”, the “recombinant UMI read abundance (log10)” value is reported as 0.414.
For “CACATGGCATGGACCGGTTTTCCCGGTAATCCGTATTTGGA (site CACTTGGCTTC)”, the “recombinant UMI read abundance (log10)” value was 0.388.
With “CACATTGCATGGACCGGTTTTCCCGGTAATCCGTATTTGGT (site CACATTGCTAC)” the “recombinant UMI read abundance (log10)” value was 1.69.
In the case of “CACCATGCATGGACCGGTTTTCCCGGTAATCCGTATTTGCG (site CACCATGCTCG)”, the “recombinant UMI read abundance (log10)” value is reported as 1.28.
In the case of “CACCCCTCATGGACCGGTTTTCCCGGTAATCCGTATTTGCC (site CACACCTCTGG)”, the “recombinant UMI read abundance (log10)” value is reported as 0.
In the case of “CACCCCTCATGGACCGGTTTTCCCGGTAATCCGTATTTGCC (site CACCCCTCTGG)”, the “recombinant UMI read abundance (log10)” value is reported as 2.71.
For “CACCCCTCATGGACCGGTTTTCCCGGTAATCCGTATTTGCC (site CACGCCTCTGG)”, the “recombinant UMI read abundance (log10)” value was 0.
In the case of “CACCCCTCATGGACCGGTTTTCCCGGTAATCCGTATTTGCC (site CACTCCTCTGG)”, the “recombinant UMI read abundance (log10)” value is reported as 1.21.
In the case of “CACCGATCATGGACCGGTTTTCCCGGTAATCCGTATTTGGC (site CACCGATCTGC)”, the “recombinant UMI read abundance (log10)” value is reported as 3.71.
With “CACCGCCCATGGACCGGTTTTCCCGGTAATCCGTATTTGTT (site CACAGCCCTAA)” the “recombinant UMI read abundance (log10)” value was 0.00423.
With “CACCGCCCATGGACCGGTTTTCCCGGTAATCCGTATTTGTT (site CACCGCCCTAA)” the “recombinant UMI read abundance (log10)” value was 0.033.
With “CACCGCCCATGGACCGGTTTTCCCGGTAATCCGTATTTGTT (site CACGGCCCTAA)” the “recombinant UMI read abundance (log10)” value was 0.0192.
For “CACCGCCCATGGACCGGTTTTCCCGGTAATCCGTATTTGTT (site CACTGCCCTAA)”, the “recombinant UMI read abundance (log10)” value was 0.0163.
For “CACCGCGCATGGACCGGTTTTCCCGGTAATCCGTATTTGTC (site CACCGCGCTGA)”, the “recombinant UMI read abundance (log10)” value was 2.33.
With “CACCGTACATGGACCGGTTTTCCCGGTAATCCGTATTTGAT (site CACCGTACTAT)” the “recombinant UMI read abundance (log10)” value was 1.95.
In the case of “CACCGTACATGGACCGGTTTTCCCGGTAATCCGTATTTGCT (site CACCGTACTAG)”, the “recombinant UMI read abundance (log10)” value is reported as 2.18.
In the case of “CACCGTACATGGACCGGTTTTCCCGGTAATCCGTATTTGCT (site CCCCGTACTAG)”, the “recombinant UMI read abundance (log10)” value is reported as 0.363.
For “CACCGTACATGGACCGGTTTTCCCGGTAATCCGTATTTGCT (site CGCCGTACTAG)”, the “recombinant UMI read abundance (log10)” value was 0.614.

Reference: the supplement of paper PMC11208160
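Further: IS621 bridge recombinase in Escherichia coli cells against a fixed T5 target plasmid.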
